Converted amounts (≈) assume the structure as drawn. “And” between values parts separate entries of the source, which are not always exact repeats. Equal values may be shown once. One block for each compound: values may come before it.
Key:
Assay in all cases: ≥ marks a high value that may be exact or a test limit, other limits are often not marked, values filed in µg/mL are converted to µM
[1] = system: Candida albicans ATCC 10231
[2] = system: Bacillus megaterium Bm11
[3] = system: Staphylococcus aureus Cowan 1
[4] = system: Escherichia coli ATCC 25922
[5] = system: Staphylococcus capitis 1
[6] = system: Yersinia pseudotuberculosis YPIII
[7] = system: Staphylococcus aureus NCTC 10788
[8] = system: Escherichia coli NCTC 10418
[9] = system: Enterococcus faecalis NCTC 12697
[10] = system: Candida albicans NCYC 1467
[11] = system: Pseudomonas aeruginosa ATCC 27853
[12] = system: Klebsiella pneumoniae ATCC 43816
[13] = system: Staphylococcus aureus NCTC 12493
[14] = system: Staphylococcus aureus USA 300
[15] = system: Staphylococcus aureus ATCC 25923
[16] = system: Candida albicans ATCC 90028
[17] = system: Acinetobacter baumannii NM35
[18] = system: Escherichia coli ATCC 25726
[19] = system: Acinetobacter baumannii NM109
[20] = system: Pseudomonas aeruginosa ATCC 15442
[21] = system: Acinetobacter baumannii NM75
[22] = system: Escherichia coli K-12
[23] = system: Escherichia coli D31
[24] = system: Streptococcus mutans ATCC 25175
[25] = system: Acinetobacter baumannii NM8
[26] = system: Acinetobacter baumannii NM124
[27] = system: Acinetobacter baumannii
[28] = system: Escherichia coli CCT 1457
[29] = system: Staphylococcus aureus CCT 2580
[30] = system: Bacillus cereus ATCC 11778
[31] = system: Klebsiella pneumoniae ATCC 700603
[32] = system: Stenotrophomonas maltophilia B32/4
[33] = system: Staphylococcus epidermidis RP62A/1
[34] = system: Staphylococcus epidermidis RP62A
[35] = system: Salmonella typhimurium
[36] = system: Proteus mirabilis
[37] = system: Candida albicans
[38] = system: Escherichia coli
[39] = system: Serratia marcescens
[40] = system: Micrococcus luteus
[41] = system: Bacillus subtilis
[42] = system: Pseudomonas aeruginosa
[43] = system: Klebsiella pneumoniae
[44] = system: Shigella dysenteriae

SMILES: CC[C@H](C)[C@H](N)C(=O)N[C@@H](CC(=O)O)C(=O)N[C@@H](Cc1c[nH]c2ccccc12)C(=O)N[C@@H](CC(C)C)C(=O)N[C@@H](CCCCN)C(=O)N[C@@H](CC(C)C)C(=O)NCC(=O)N[C@@H](CCCCN)C(=O)N[C@@H](CCSC)C(=O)N[C@H](C(=O)N[C@@H](CCSC)C(=O)N[C@@H](CC(=O)O)C(=O)N[C@H](C(=O)N[C@@H](CC(C)C)C(N)=O)C(C)C)C(C)C [IDWLKLGKMVMDVL]
MIC [28]: ≥ 37.3 µM
MIC [20]: ≥ 301 µM
MIC [29]: 18.7 µM (≈ 31 µg/mL)
MIC [30]: ≥ 37.3 µM

SMILES: CC[C@H](C)[C@H](N)C(=O)N[C@@H](CC(C)C)C(=O)NCC(=O)N[C@@H](CCCCN)C(=O)N[C@@H](CC(C)C)C(=O)N[C@@H](CC(C)C)C(=O)N[C@@H](CO)C(=O)N[C@H](C(=O)N[C@@H](C)C(=O)N[C@@H](C)C(=O)N[C@@H](CCCCN)C(=O)N[C@@H](CC(C)C)C(=O)N[C@@H](CC(C)C)C(=O)N[C@@H](CO)C(=O)N[C@@H](CC(N)=O)C(=O)N[C@@H](CC(C)C)C(N)=O)[C@@H](C)O [ILGKLLSTAAKLLSNL]
MIC [15]: 4 µM (≈ 6.62 µg/mL)
MIC [16]: 16 µM (≈ 26.5 µg/mL)
MIC [31]: 32 µM (≈ 52.9 µg/mL)
MIC [32]: ≥ 32 µM
MIC [18]: ≥ 32 µM
MIC [11]: 32 µM (≈ 52.9 µg/mL)
MIC [33]: 4 µM (≈ 6.62 µg/mL)
MIC [34]: 4 µM (≈ 6.62 µg/mL)
MIC [25]: 8 µM (≈ 13.2 µg/mL)

SMILES: CC[C@H](C)[C@H](NC(=O)[C@@H](N)C(C)C)C(=O)N1CCC[C@H]1C(=O)N[C@@H](Cc1ccccc1)C(=O)N[C@H](C(=O)N[C@@H](C)C(=O)N[C@@H](CO)C(=O)N[C@H](C(=O)N[C@@H](C)C(=O)N[C@@H](C)C(=O)N[C@@H](CCC(=O)O)C(=O)N[C@@H](CCSC)C(=O)N[C@@H](CCSC)C(=O)N[C@@H](Cc1cnc[nH]1)C(=O)N[C@@H](Cc1cnc[nH]1)C(=O)N[C@H](C(=O)N[C@@H](Cc1ccc(O)cc1)C(=O)N[C@H]1CSSC[C@@H](C(=O)O)NC(=O)[C@H](CCCN=C(N)N)NC(=O)[C@H](CCCCN)NC(=O)[C@H](CO)NC(=O)[C@H](C)NC(=O)[C@H](C)NC1=O)C(C)C)C(C)C)C(C)C [VIPFVASVAAEMMHHVYCAASKRC]
MIC [35]: ≥ 76.3 µM
MIC [36]: ≥ 76.3 µM
MIC [37]: 76.3 µM (≈ 200 µg/mL)
MIC [38]: > 76.3 µM
MIC [39]: ≥ 76.3 µM
MIC [40]: 9.54 µM (≈ 25 µg/mL)
MIC [41]: ≥ 76.3 µM
MIC [42]: > 76.3 µM
MIC [43]: > 76.3 µM
MIC [44]: ≥ 76.3 µM

The remaining lines, values ahead:

MIC [1]: 1.25 µM (≈ 1.71 µg/mL)
MIC [2]: 2.5 µM (≈ 3.43 µg/mL)
MIC [3]: 2.5 µM (≈ 3.43 µg/mL)
MIC [4]: > 40 µM
MIC [5]: 2.5 µM (≈ 3.43 µg/mL)
MIC [6]: 20 µM (≈ 27.4 µg/mL)
SMILES: CC[C@H](C)[C@H](NC(=O)CNC(=O)[C@H](CO)NC(=O)[C@H](CC(C)C)NC(=O)[C@@H](NC(=O)[C@H](CCCN=C(N)N)NC(=O)CNC(=O)[C@@H](NC(=O)[C@H](CC(C)C)NC(=O)[C@H](C)NC(=O)[C@H](CC(C)C)NC(=O)[C@@H](N)Cc1ccccc1)[C@@H](C)CC)C(C)C)C(=O)N[C@@H](CC(C)C)C(N)=O [FLALIGRVLSGIL]

MIC [7]: 4 µM (≈ 8.05 µg/mL)
MIC [8]: ≥ 64 µM
MIC [9]: ≥ 64 µM
MIC [10]: 8 µM (≈ 16.1 µg/mL)
MIC [11]: > 512 µM
MIC [12]: ≥ 256 µM
MIC [13]: 16 µM (≈ 32.2 µg/mL)
SMILES: CC[C@H](C)[C@H](NC(=O)[C@H](C)NC(=O)[C@H](CO)NC(=O)[C@@H](NC(=O)[C@H](C)NC(=O)[C@H](CCCCN)NC(=O)[C@@H]1CCCN1C(=O)[C@@H](NC(=O)[C@H](CC(C)C)NC(=O)[C@H](CO)NC(=O)[C@H](CC(C)C)NC(=O)[C@@H](N)Cc1ccccc1)[C@@H](C)CC)[C@@H](C)CC)C(=O)N[C@@H](CO)C(=O)N[C@@H](C)C(=O)N[C@@H](CC(C)C)C(=O)N[C@@H](C)C(=O)N[C@@H](CC(N)=O)C(=O)N[C@@H](Cc1cnc[nH]1)C(=O)N[C@@H](Cc1ccccc1)C(N)=O [FLSLIPKAISAISALANHF]

MIC [14]: 25 µM (≈ 58 µg/mL)
MIC [15]: 25 µM and 22.6 µM
MIC [1]: 16 µM (≈ 37.1 µg/mL)
MIC [16]: 12.5 µM (≈ 29 µg/mL)
MIC [17]: 6 µM (≈ 13.9 µg/mL)
MIC [18]: 25 µM (≈ 58 µg/mL)
MIC [19]: 6 µM (≈ 13.9 µg/mL)
MIC [20]: ≥ 100 µM
MIC [21]: 3 µM (≈ 6.96 µg/mL)
MIC [22]: 25 µM (≈ 58 µg/mL)
MIC [23]: ≥ 32 µM
MIC [24]: ≥ 100 µM
MIC [25]: 6 µM (≈ 13.9 µg/mL)
MIC [26]: 6 µM (≈ 13.9 µg/mL)
MIC [27]: 12.5 µM (≈ 29 µg/mL)
SMILES: CC[C@H](C)[C@H](NC(=O)CN)C(=O)N[C@@H](Cc1c[nH]c2ccccc12)C(=O)N[C@@H](CC(=O)O)C(=O)N[C@H](C(=O)N[C@H](C(=O)N[C@@H](CCCCN)C(=O)N[C@@H](CO)C(=O)N[C@@H](CCSC)C(=O)NCC(=O)N[C@@H](CCCCN)C(=O)N[C@H](C(=O)N[C@@H](Cc1ccccc1)C(=O)N[C@@H](C)C(=O)NCC(=O)N[C@@H](CCCCN)C(=O)N[C@H](C(=O)N[C@@H](CC(C)C)C(=O)N[C@@H](CCC(N)=O)C(=O)N[C@@H](CC(N)=O)C(=O)N[C@@H](CC(C)C)C(N)=O)[C@@H](C)CC)C(C)C)[C@@H](C)CC)[C@@H](C)O [GIWDTIKSMGKVFAGKILQNL]
